The record followed here is patent US20110274679A1, “Compositions and Methods of SIRT Activation” (VDF FutureCeuticals, Inc., priority 2008, published 2011).

This test relates to SIRT. The test is described as follows: in vitro SIRT activity in treated cells, lysed after treatment (BioMol SIRT Activity Assay kit). The class given is cell-based. Conditions: depending on the cell line; positive control. From the text: Among other suitable combinations, one exemplary SIRT activating combination of B-vitamins was formulated that included a combination of vitamin B2, B1, B3, B6, B12, and B5. Using that combination, HeLa cells were separately treated in vitro for 4 hrs, along with a reference compound (here: resveratrol) as positive control, as well as individually with the respective above vitamins at a total concentrations of 0.1% (wt/vol) of culture medium. To measure SIRT activation, the cells were lysed after treatment and SIRT activity was determined using a commercially available SIRT Activity Assay kit (BioMol, Inc.; Catalog #KI-104).
Moreover, in vitro activation with the known SIRT activator resveratrol was, depending on the cell line, between about 15-120% of untreated control, making the SIRT activation with the vitamin compounds even more remarkable.
In an experiment similar to that above, FIG. 2 depicts further combinations for selected vitamin B compounds in which the columns show the results for A (Riboflavin, vitamin B2), B (Thiamine, vitamin B1), C (Niacinamide, vitamin B3), D (Pyridoxine, vitamin B6), E (Cyanocobolamin, vitamin B12), F (Ca-Panthotenate, vitamin B5), G=Blend of A-F (VSIRT), H (Pyrodoxine, vitamin B6 plus Cobalamin, vitamin B12), 0.05% each, and I (H plus Riboflavin, vitamin B2) (0.033% each). […]

Take `Oc1ccc(C=Cc2cc(O)cc(O)c2)cc1` [resveratrol]: the “in vitro activation of SIRT” value was 15-120 % of untreated control.
